Measured values taken from patent publication US20220251081A1, “HETEROBICYCLIC INHIBITORS OF MAT2A AND METHODS OF USE FOR TREATING CANCER” (priority 2019, published 2022).

Columns and labels:
MAT2A homodimer = molecular target: T1, MAT2A homodimer (Homo sapiens, UniProt P31153); experiment: Biochemical assay: inhibition of recombinant MAT2A homodimer (phosphate release, PiColorLock Gold); details: MAT2A IC50 score; read-out: Enzyme Inhibition
T1 construct: inferred from Ni sepharose purification and imidazole elution; made in house; host or cells: Sf9 insect cells, recombinant baculovirus (Bac to Bac, pFASTBAC1 vector)
Procedure, shortened: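 Baculovirus/Sf9-expressed, Ni-purified MAT2A at 4 μg/mL in pH 8.0 Tris/KCl/MgCl2/EDTA/BSA buffer, preincubated with compound 60 min at 25 °C. Started with ATP and L-methionine substrate mix (500 μM and 40 μM, stock in mix), 60 min at 25 °C; released phosphate by PiColorLock Gold against a phosphate standard curve.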

[1] = tested on: SAM in HCT116 human colon carcinoma cell line with deleted MTAP gene; experiment: Cellular assay of target engagement (SAM): SAM level by LC-MS/MS after 72 hrs; format: cell-based; details: HCT-116, IC50 score, read-out: Cell 72 h SAM Inhibition (MTAP −/−)
Procedure, shortened: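 MTAP-deleted HCT116 cells were seeded, then exposed 24 h later to a 10-point 3-fold compound dilution series for 72 h at 37 °C/5% CO2. They were lysed in cold 80% methanol/acetic acid containing d3-SAM internal standard. SAM was quantified by LC-MS/MS (MRM, m/z 399.2→250.1).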

HCT116 MTAP-/- = experiment: Inhibition of cellular proliferation, 4 days, Cell Titer Glo, HCT116 MTAP-/-; format: cell-based; details: Homo sapiens, HCT-116, 96 h, IC50 score, read-out: 4 Day Relative Growth Inhibition (MTAP −/−)
Procedure, shortened: (§1)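 Isogenic human colon carcinoma lines differing only in MTAP status, plated 24 h before dosing, then exposed for 4 days at 37 °C/5% CO2 to a 10-point 3-fold dilution series (0.2% DMSO final). Read-out is Cell Titer Glo ATP luminescence, blank-subtracted and normalised to in-plate DMSO control, plotted as % proliferation change versus log molar concentration.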

HCT116 MTAP +/+ = experiment: Inhibition of cellular proliferation, 4 days, Cell Titer Glo, HCT116 MTAP+/+; format: cell-based; details: Homo sapiens, HCT-116, 96 h, IC50 score, read-out: 4 Day Relative Growth Inhibition (MTAP +/+)
Procedure, shortened: as §1

T1 sequence (P31153 whole entry): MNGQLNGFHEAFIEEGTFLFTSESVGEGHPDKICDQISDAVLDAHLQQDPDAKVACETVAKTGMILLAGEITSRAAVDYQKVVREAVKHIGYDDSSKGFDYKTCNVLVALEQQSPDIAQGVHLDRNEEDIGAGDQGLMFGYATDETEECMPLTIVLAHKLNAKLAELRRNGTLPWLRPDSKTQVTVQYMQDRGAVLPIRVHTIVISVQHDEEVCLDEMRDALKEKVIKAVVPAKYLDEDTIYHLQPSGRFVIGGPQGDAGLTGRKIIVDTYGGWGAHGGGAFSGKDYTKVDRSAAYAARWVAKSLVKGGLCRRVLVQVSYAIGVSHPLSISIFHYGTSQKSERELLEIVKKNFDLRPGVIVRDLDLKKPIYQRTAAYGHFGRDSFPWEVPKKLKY

| IC50 (MAT2A homodimer) [nM] | IC50 [1] [nM] | IC50 (HCT116 MTAP-/-) [nM] | IC50 (HCT116 MTAP +/+) [nM] | SMILES |
| --- | --- | --- | --- | --- |
| < 100 | < 100 | < 100 | 100 to 1000 | [2H]C([2H])([2H])Oc1ccc(-n2c(=O)c(-c3ccc4nn(C)cc4c3)cc3ccc(OCC(F)F)nc32)cc1 [Example 149] |
| < 100 | < 100 | 100 to 1000 | ≥ 1000 | CCOc1ccc2cc(-c3ccc(=O)n(C)c3)c(=O)n(-c3ccc(Cl)cc3)c2n1 [Example 199] |
| < 100 | < 100 | 100 to 1000 | 100 to 1000 | CCOc1cnc2cc(-c3ccc(OC)cc3)c(=O)n(-c3ccc(OC(F)F)cc3)c2n1 [Example 230] |
| < 100 | < 100 | < 100 | 100 to 1000 | CCOc1ccc2cc(-c3ccc(=O)n(C)c3)c(=O)n(-c3ccc(OC(F)F)cc3)c2n1 [Example 208] |
| < 100 | < 100 | < 100 | 100 to 1000 | COc1ccc(-n2c(=O)c(-c3ccc4ncncc4c3)cc3cnc(NCC(F)(F)F)nc32)cc1 [Example 176] |
| < 100 | 100 to 1000 | ≥ 1000 | ≥ 1000 | COc1ccc(-n2c(=O)c(-c3ccc(OC)nc3)cc3cnc(NCC(F)(F)F)nc32)cc1 [Example 171] |
| < 100 | < 100 | < 100 | ≥ 1000 | COc1ccc(-n2c(=O)c(-c3ccc4nc(C)n(C)c4c3)nc3ccc(OCC(F)(F)F)nc32)cc1 [Example 340] |
| < 100 | < 100 | < 100 | ≥ 1000 | Cn1cc2cc(-c3nc4ccc(NCC(F)(F)F)nc4n(-c4ccc(OC(F)F)cc4)c3=O)ccc2n1 [Example 225] |
| < 100 | < 100 | < 100 | 100 to 1000 | CCOc1cnc2cc(-c3ccc4nn(C)cc4c3)c(=O)n(-c3ccc(OC(F)F)cc3)c2n1 [Example 231] |
| < 100 | < 100 | < 100 | ≥ 1000 | COc1ccc(-n2c(=O)c(-c3ccc4nc(N)n(C)c4c3)nc3ccc(OCC(F)(F)F)nc32)cc1 [Example 351, 2-(2-amino-1-methyl-1H-benzo[d]imidazol-6-yl)-4-(4-methoxyphenyl)-6-(2,2,2-trifluoroethoxy)pyrido[2,3-b]pyrazin-3(4H)-one] |
| < 100 | < 100 | < 100 | ≥ 1000 | Cn1cc2cc(-c3cc4ccc(OCC(F)F)nc4n(-c4ccc(OC(F)F)cc4)c3=O)ccc2n1 [Example 321] |
| < 100 | < 100 | ≥ 1000 | ≥ 1000 | COc1ccc(-n2c(=O)c(-c3ccc4c(c3)OCO4)cc3cnc(NCC(F)(F)F)nc32)cc1 [Example 177] |
| < 100 | 100 to 1000 | 100 to 1000 | ≥ 1000 | CCOc1ccc2cc(-c3ccc4nn(CC(C)(C)O)cc4c3)c(=O)n(-c3ccc(OC(F)F)nc3)c2n1 [Example 213] |
| < 100 | < 100 | < 100 | ≥ 1000 | [2H]C([2H])([2H])Oc1ccc(-n2c(=O)c(-c3ccc4nncn4c3)cc3ccc(OCC(F)F)nc32)cc1 [Example 220] |
| < 100 | < 100 | < 100 | 100 to 1000 | CCOc1ccc2cc(-c3ccc4nn(C)cc4c3)c(=O)n(-c3ccc(NC)nc3)c2n1 [Example 144] |
| < 100 | < 100 | < 100 | ≥ 1000 | CCOc1ccc2cc(-c3ccc4nn(C)cc4c3)c(=O)n(-c3ccc(OC)cc3)c2n1 [Example 142] |

| IC50 (MAT2A homodimer) [nM] | IC50 [1] [nM] | IC50 (HCT116 MTAP-/-) [nM] | IC50 (HCT116 MTAP +/+) [nM] | SMILES |
| --- | --- | --- | --- | --- |
| < 100 | < 100 | < 100 | ≥ 1000 | Cn1cc2cc(-c3cc4ccc(NCC(F)(F)F)nc4n(-c4ccc(OC(F)F)cc4)c3=O)ccc2n1 [Example 120] |
| < 100 | < 100 | < 100 | ≥ 1000 | CCOc1ccc2cc(-c3ccc4nn(C)cc4c3)c(=O)n(-c3ccc(C(F)(F)F)nc3)c2n1 [Example 151, 7-ethoxy-3-(2-methyl-2H-indazol-5-yl)-1-(6-(trifluoromethyl)pyridin-3-yl)-1,8-naphthyridin-2(1H)-one] |
| < 100 | < 100 | < 100 | ≥ 1000 | O=c1c(-c2ccc3nncn3c2)cc2ccc(OCC(F)F)nc2n1-c1ccc(Cl)cc1 [Example 218] |
| < 100 | < 100 | < 100 | 100 to 1000 | [2H]C([2H])([2H])Oc1ccc(-n2c(=O)c(-c3ccc4nn(C)cc4c3)cc3ncc(OCC)nc32)cc1 [Example 342] |
| < 100 | < 100 | 100 to 1000 | ≥ 1000 | COc1ccc(-c2cc3cnc(NCC(F)(F)F)nc3n(-c3ccc(OC(F)F)cc3)c2=O)cc1 [Example 127] |
| < 100 | < 100 | < 100 | ≥ 1000 | [2H]C([2H])([2H])Oc1ccc(-n2c(=O)c(-c3ccc4nn(C)cc4c3)nc3ccc(OCC(F)(F)F)nc32)cc1 [Example 326] |
| < 100 | < 100 | < 100 | ≥ 1000 | [2H]C([2H])([2H])Oc1ccc(-n2c(=O)c(-c3ccc4nncn4c3)cc3ccc(OCC)nc32)cc1 [Example 221] |
| < 100 | < 100 | 100 to 1000 | ≥ 1000 | COc1ccc(-n2c(=O)c(-c3ccc4nccn4c3)cc3cnc(NCC(F)(F)F)nc32)cc1 [Example 172] |
| < 100 | < 100 | 100 to 1000 | ≥ 1000 | Cc1ccc(-n2c(=O)c(-c3ccc4nn(C)cc4c3)nc3ccc(OCC(F)(F)F)nc32)cn1 [Example 333] |
| < 100 | < 100 | < 100 | ≥ 1000 | [2H]C([2H])([2H])Oc1ccc(-n2c(=O)c(-c3ccc4nn(C)cc4c3)cc3ccc(OCC(F)(F)F)nc32)cc1 [Example 316] |
| < 100 | < 100 | < 100 | < 100 | CCNc1ccc2nc(-c3ccc4nn(C)cc4c3)c(=O)n(-c3ccc(OC(F)F)cc3)c2n1 [Example 338] |
| < 100 | < 100 | < 100 | ≥ 1000 | CCOc1ccc2cc(-c3ccc4nccn4c3)c(=O)n(-c3ccc(Cl)cc3)c2n1 [Example 197] |
| < 100 | < 100 | < 100 | 100 to 1000 | [2H]C([2H])([2H])Oc1ccc(-n2c(=O)c(-c3ccc4nn(C([2H])([2H])[2H])cc4c3)cc3ccc(OC([2H])([2H])C([2H])([2H])[2H])nc32)cc1 [Example 303] |
| < 100 | < 100 | < 100 | 100 to 1000 | CCOc1ccc2cc(-c3ccc4nn(C)cc4c3)c(=O)n(-c3ccc(C4CC4)nc3)c2n1 [Example 161] |
| < 100 | < 100 | < 100 | ≥ 1000 | COc1ccc(-n2c(=O)c(-c3ccc4nn(CCO)cc4c3)nc3ccc(OCC(F)(F)F)nc32)cc1 [Example 335, 2-(2-(2-hydroxyethyl)-2H-indazol-5-yl)-4-(4-methoxyphenyl)-6-(2,2,2-trifluoroethoxy)pyrido[2,3-b]pyrazin-3(4H)-one] |
| < 100 | < 100 | < 100 | ≥ 1000 | CCNc1ccc(-n2c(=O)c(-c3ccc4nn(C)cc4c3)cc3ccc(OCC)nc32)cn1 [Example 145] |
